# In patent US11446287B2, “Compounds and methods for EP300 or CBP modulation and indications therefor” (Opna Immuno-Oncology SA, priority 2019, dated 2022):
# Target: T1, Recombinant human BRD4 containing dual bromodomains (BRD4-BD12 (1-477)) (Homo sapiens, UniProt O60885)
# T1 construct: Recombinant human BRD4 containing dual bromodomains (BRD4-BD12 (1-477)); made in house; host or cells: E. coli BL21-CodonPlus (DE3), modified pET vector
# Experiment: BRD4 Alphascreen binding assay
# Outline: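 AlphaScreen proximity between Ni-chelate-bound BRD4-BD12 (1-477) and streptavidin-captured H4 K5/K8/K12/K16-acetyl peptide measured after 1 h room-temperature compound incubation and 30 min with 7.5 μg/ml beads. Buffer: 50 mM HEPES pH 7.5, 50 mM NaCl, 0.01% BSA, 0.01% Triton X-100; data plate-normalized and four-parameter fit for IC50.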
row,Structure (SMILES),IC50
1,"Cc1noc(C)c1-c1cnc2c(c1)c(-c1ccc(C(=O)O)cc1OC(F)(F)F)cn2C1CCOCC1 [P-0226, 4-(5-(3,5-dimethylisoxazol-4-yl)-1-(tetrahydro-2H-pyran-4-yl)-1H-pyrrolo[2,3-b]pyridin-3-yl)-3-(trifluoromethoxy)benzoic acid]",1 to 8 µM
2,"CCOc1cc(C(=O)O)cc(F)c1-n1cc(-c2ccccc2)c2ncc(-c3c(C)noc3C)cc21 [P-0205, 4-(6-(3,5-dimethylisoxazol-4-yl)-3-phenyl-1H-pyrrolo[3,2-b]pyridin-1-yl)-3-ethoxy-5-fluorobenzoic acid]",1 to 8 µM
3,"COc1cc(C(=O)O)cc(OC)c1-n1cc(-c2ccccc2)c2ncc(-c3c(C)noc3C)cc21 [P-0220, 4-(6-(3,5-dimethylisoxazol-4-yl)-3-phenyl-1H-pyrrolo[3,2-b]pyridin-1-yl)-3,5-dimethoxybenzoic acid]",0.0001 to 1 µM
4,"COc1ccc(C(=O)O)cc1-c1cn(C(C)(c2ccccn2)c2ccccn2)c2cc(-c3c(C)noc3C)cnc12 [P-0172, 3-(1-(1,1-di(pyridin-2-yl)ethyl)-6-(3,5-dimethylisoxazol-4-yl)-1H-pyrrolo[3,2-b]pyridin-3-yl)-4-methoxybenzoic acid]",1 to 8 µM
5,"Cc1noc(C)c1-c1cnc2c(-c3ccc(C(=O)O)c(F)c3)c(C(F)(F)F)n([C@@H](C)c3ccccn3)c2c1 [P-0242, (S)-4-(6-(3,5-dimethylisoxazol-4-yl)-1-(1-(pyridin-2-yl)ethyl)-2-(trifluoromethyl)-1H-pyrrolo[3,2-b]pyridin-3-yl)-2-fluorobenzoic acid]",8 to 1000 µM
6,"Cc1noc(C)c1-c1cnc2c(c1)c(-c1ccc(C(=O)O)cc1OC(F)(F)F)cn2-c1cc(F)ccc1F [P-0233, 4-(1-(2,5-difluorophenyl)-5-(3,5-dimethylisoxazol-4-yl)-1H-pyrrolo[2,3-b]pyridin-3-yl)-3-(trifluoromethoxy)benzoic acid]",1 to 8 µM
7,"Cc1noc(C)c1-c1cnc2c(c1)c(-c1ccc(C(=O)O)cc1OC(F)(F)F)cn2C(CC#N)C1CCCC1 (stereo not shown) [P-0200, 4-(1-(2-cyano-1-cyclopentylethyl)-5-(3,5-dimethylisoxazol-4-yl)-1H-pyrrolo[2,3-b]pyridin-3-yl)-3-(trifluoromethoxy)benzoic acid]",8 to 1000 µM
8,"CCOc1cc(C(=O)O)cc(OCC)c1-n1cc(-c2ccc(F)cc2F)c2ncc(-c3c(C)noc3C)cc21 [P-0186, 4-(3-(2,4-difluorophenyl)-6-(3,5-dimethylisoxazol-4-yl)-1H-pyrrolo[3,2-b]pyridin-1-yl)-3,5-diethoxybenzoic acid]",8 to 1000 µM
9,"CCOc1cc(C(=O)O)cc(OCC)c1-n1cc(-c2cnc(OC)nc2)c2ncc(-c3c(C)noc3C)cc21 [P-0201, 4-(6-(3,5-dimethylisoxazol-4-yl)-3-(2-methoxypyrimidin-5-yl)-1H-pyrrolo[3,2-b]pyridin-1-yl)-3,5-diethoxybenzoic acid]",1 to 8 µM
10,"Cc1noc(C)c1-c1cnc2c(-c3cc(Cl)cc(C(=O)O)c3)c(C(F)(F)F)n([C@@H](C)c3ccccn3)c2c1 [P-0241, (S)-3-chloro-5-(6-(3,5-dimethylisoxazol-4-yl)-1-(1-(pyridin-2-yl)ethyl)-2-(trifluoromethyl)-1H-pyrrolo[3,2-b]pyridin-3-yl)benzoic acid]",8 to 1000 µM
11,"Cc1noc(C)c1-c1cnc2c(c1)c(-c1ccc(C(=O)O)cc1OC(F)(F)F)cn2-c1cnccc1C#N [P-0204, 4-(1-(4-cyanopyridin-3-yl)-5-(3,5-dimethylisoxazol-4-yl)-1H-pyrrolo[2,3-b]pyridin-3-yl)-3-(trifluoromethoxy)benzoic acid]",8 to 1000 µM
12,"Cc1noc(C)c1-c1cnc2c(-c3ccccc3)cn(-c3ccc(C(=O)O)cc3OC(F)(F)F)c2c1 [P-0196, 4-(6-(3,5-dimethylisoxazol-4-yl)-3-phenyl-1H-pyrrolo[3,2-b]pyridin-1-yl)-3-(trifluoromethoxy)benzoic acid]",1 to 8 µM
13,"Cc1cnccc1-n1cc(-c2ccc(C(=O)O)cc2OC(F)(F)F)c2cc(-c3c(C)noc3C)cnc21 [P-0211, 4-(5-(3,5-dimethylisoxazol-4-yl)-1-(3-methylpyridin-4-yl)-1H-pyrrolo[2,3-b]pyridin-3-yl)-3-(trifluoromethoxy)benzoic acid]",1 to 8 µM
14,"Cc1noc(C)c1-c1cnc2c(c1)c(-c1ccc(C(=O)O)cc1OC(F)(F)F)cn2-c1ncccc1C#N [P-0215, 4-(1-(3-cyanopyridin-2-yl)-5-(3,5-dimethylisoxazol-4-yl)-1H-pyrrolo[2,3-b]pyridin-3-yl)-3-(trifluoromethoxy)benzoic acid]",1 to 8 µM
15,"Cc1noc(C)c1-c1cnc2c(c1)c(-c1ccc(C(=O)O)cc1OC(F)(F)F)cn2-c1cccnc1 [P-0175, 4-(5-(3,5-dimethylisoxazol-4-yl)-1-(pyridin-3-yl)-1H-pyrrolo[2,3-b]pyridin-3-yl)-3-(trifluoromethoxy)benzoic acid]",1 to 8 µM
16,"Cc1noc(C)c1-c1cnc2c(c1)c(-c1c(Cl)cc(C(=O)O)cc1OC(F)(F)F)cn2C(C1CC1)C1CC1 [P-0198, 3-chloro-4-(1-(dicyclopropylmethyl)-5-(3,5-dimethylisoxazol-4-yl)-1H-pyrrolo[2,3-b]pyridin-3-yl)-5-(trifluoromethoxy)benzoic acid]",8 to 1000 µM

row,Structure (SMILES),IC50
1,"Cc1noc(C)c1-c1cnc2c(c1)c(-c1ccc(C(=O)O)cc1OC(F)(F)F)cn2C1CCS(=O)(=O)CC1 [P-0212, 4-(5-(3,5-dimethylisoxazol-4-yl)-1-(1,1-dioxidotetrahydro-2H-thiopyran-4-yl)-1H-pyrrolo[2,3-b]pyridin-3-yl)-3-(trifluoromethoxy)benzoic acid]",8 to 1000 µM
2,"Cc1noc(C)c1-c1cnc2c(c1)c(-c1ccc(C(=O)O)cc1OC1CC1)cn2[C@@H](C)c1ccccn1 [P-0170, (S)-3-cyclopropoxy-4-(5-(3,5-dimethylisoxazol-4-yl)-1-(1-(pyridin-2-yl)ethyl)-1H-pyrrolo[2,3-b]pyridin-3-yl)benzoic acid]",8 to 1000 µM
3,"Cc1noc(C)c1-c1cnc2c(-c3cc(C(=O)O)ccc3F)c(C(F)(F)F)n([C@@H](C)c3ccccn3)c2c1 [P-0238, (S)-3-(6-(3,5-dimethylisoxazol-4-yl)-1-(1-(pyridin-2-yl)ethyl)-2-(trifluoromethyl)-1H-pyrrolo[3,2-b]pyridin-3-yl)-4-fluorobenzoic acid]",1 to 8 µM
4,"Cc1noc(C)c1-c1cnc2c(c1)c(-c1cccc(C(=O)O)c1)cn2C(c1ccccn1)C1CCCC1 (stereo not shown) [P-0015, 3-(1-(cyclopentyl(pyridin-2-yl)methyl)-5-(3,5-dimethylisoxazol-4-yl)-1H-pyrrolo[2,3-b]pyridin-3-yl)benzoic acid]",1 to 8 µM
5,"Cc1noc(C)c1-c1cnc2c(c1)c(-c1ccc(C(=O)O)cc1OC(F)(F)F)cn2-c1ccccc1 [P-0188, 4-(5-(3,5-dimethylisoxazol-4-yl)-1-phenyl-1H-pyrrolo[2,3-b]pyridin-3-yl)-3-(trifluoromethoxy)benzoic acid]",1 to 8 µM
6,"Cc1noc(C)c1-c1cnc2c(c1)c(-c1ccc(C(=O)O)cc1OC(F)(F)F)cn2C1CCC(F)(F)CC1 [P-0227, 4-(1-(4,4-difluorocyclohexyl)-5-(3,5-dimethylisoxazol-4-yl)-1H-pyrrolo[2,3-b]pyridin-3-yl)-3-(trifluoromethoxy)benzoic acid]",1 to 8 µM
7,"Cc1noc(C)c1-c1cnc2c(-c3ccccc3)cn(-c3c(Cl)cccc3C#N)c2c1 [P-0207, 3-chloro-2-(6-(3,5-dimethylisoxazol-4-yl)-3-phenyl-1H-pyrrolo[3,2-b]pyridin-1-yl)benzonitrile]",1 to 8 µM
8,"Cc1noc(C)c1-c1cnc2c(c1)c(-c1ccc(C(=O)O)cc1OC(F)(F)F)cn2-c1ccc(F)cc1F [P-0232, 4-(1-(2,4-difluorophenyl)-5-(3,5-dimethylisoxazol-4-yl)-1H-pyrrolo[2,3-b]pyridin-3-yl)-3-(trifluoromethoxy)benzoic acid]",1 to 8 µM
9,"Cc1noc(C)c1-c1cnc2c(c1)c(-c1ccc(F)c(C(=O)O)c1)cn2C(c1ccccn1)C1CCCC1 (stereo not shown) [P-0016, 5-(1-(cyclopentyl(pyridin-2-yl)methyl)-5-(3,5-dimethylisoxazol-4-yl)-1H-pyrrolo[2,3-b]pyridin-3-yl)-2-fluorobenzoic acid]",1 to 8 µM
10,"CCOc1cccc(C#N)c1-n1cc(-c2ccccc2)c2ncc(-c3c(C)noc3C)cc21 [P-0206, 2-(6-(3,5-dimethylisoxazol-4-yl)-3-phenyl-1H-pyrrolo[3,2-b]pyridin-1-yl)-3-ethoxybenzonitrile]",8 to 1000 µM
11,"Cc1noc(C)c1-c1cnc2c(c1)c(-c1ccc(C(=O)O)cc1OC(F)(F)F)cn2-c1ccnc(C(C)C)c1 [P-0203, 4-(5-(3,5-dimethylisoxazol-4-yl)-1-(2-isopropylpyridin-4-yl)-1H-pyrrolo[2,3-b]pyridin-3-yl)-3-(trifluoromethoxy)benzoic acid]",1 to 8 µM
12,"COc1cc(C(=O)O)ccc1-c1c(C(F)(F)F)n([C@@H](C)c2ccccn2)c2cc(-c3c(C)noc3C)cnc12 [P-0236, (S)-4-(6-(3,5-dimethylisoxazol-4-yl)-1-(1-(pyridin-2-yl)ethyl)-2-(trifluoromethyl)-1H-pyrrolo[3,2-b]pyridin-3-yl)-3-methoxybenzoic acid]",1 to 8 µM
13,"Cc1noc(C)c1-c1cnc2c(c1)c(-c1ccc(C(=O)O)cc1OC(F)(F)F)cn2S(=O)(=O)C1CC1 [P-0202, 4-(1-(cyclopropylsulfonyl)-5-(3,5-dimethylisoxazol-4-yl)-1H-pyrrolo[2,3-b]pyridin-3-yl)-3-(trifluoromethoxy)benzoic acid]",1 to 8 µM
14,"Cc1noc(C)c1-c1cnc2c(c1)c(-c1ccc(C(=O)O)cc1OC(F)(F)F)cn2-c1ccccc1F [P-0223, 4-(5-(3,5-dimethylisoxazol-4-yl)-1-(2-fluorophenyl)-1H-pyrrolo[2,3-b]pyridin-3-yl)-3-(trifluoromethoxy)benzoic acid]",1 to 8 µM
15,"Cc1noc(C)c1-c1cnc2c(c1)c(-c1ccc(C(=O)O)cc1OC(F)(F)F)cn2-c1ncccc1C(F)(F)F [P-0180, 4-(5-(3,5-dimethylisoxazol-4-yl)-1-(3-(trifluoromethyl)pyridin-2-yl)-1H-pyrrolo[2,3-b]pyridin-3-yl)-3-(trifluoromethoxy)benzoic acid]",8 to 1000 µM
